One assay addresses T1, Cysteine protease ATG4B (Homo sapiens, UniProt Q9Y4P1).
T1 sequence (Q9Y4P1 whole entry): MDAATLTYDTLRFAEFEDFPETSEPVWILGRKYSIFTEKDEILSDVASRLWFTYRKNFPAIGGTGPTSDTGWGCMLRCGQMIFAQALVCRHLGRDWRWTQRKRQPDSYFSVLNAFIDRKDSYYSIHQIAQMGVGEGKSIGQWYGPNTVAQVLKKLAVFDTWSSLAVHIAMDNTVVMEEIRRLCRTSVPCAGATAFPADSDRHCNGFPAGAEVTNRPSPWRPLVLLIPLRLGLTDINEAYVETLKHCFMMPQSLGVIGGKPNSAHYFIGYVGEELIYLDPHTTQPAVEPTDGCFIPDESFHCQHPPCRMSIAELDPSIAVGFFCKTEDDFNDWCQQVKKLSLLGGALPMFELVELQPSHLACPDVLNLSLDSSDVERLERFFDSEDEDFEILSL
Format: functional.

Assay [1] concerns the target T2, Sentrin-specific protease 6 (Homo sapiens, UniProt Q9GZR1).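 Note: Luminescence-based dose-response confirmatory assay of SENP6 inhibition, following up an ultra-high-throughput screen.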
T2 sequence (Q9GZR1 whole entry): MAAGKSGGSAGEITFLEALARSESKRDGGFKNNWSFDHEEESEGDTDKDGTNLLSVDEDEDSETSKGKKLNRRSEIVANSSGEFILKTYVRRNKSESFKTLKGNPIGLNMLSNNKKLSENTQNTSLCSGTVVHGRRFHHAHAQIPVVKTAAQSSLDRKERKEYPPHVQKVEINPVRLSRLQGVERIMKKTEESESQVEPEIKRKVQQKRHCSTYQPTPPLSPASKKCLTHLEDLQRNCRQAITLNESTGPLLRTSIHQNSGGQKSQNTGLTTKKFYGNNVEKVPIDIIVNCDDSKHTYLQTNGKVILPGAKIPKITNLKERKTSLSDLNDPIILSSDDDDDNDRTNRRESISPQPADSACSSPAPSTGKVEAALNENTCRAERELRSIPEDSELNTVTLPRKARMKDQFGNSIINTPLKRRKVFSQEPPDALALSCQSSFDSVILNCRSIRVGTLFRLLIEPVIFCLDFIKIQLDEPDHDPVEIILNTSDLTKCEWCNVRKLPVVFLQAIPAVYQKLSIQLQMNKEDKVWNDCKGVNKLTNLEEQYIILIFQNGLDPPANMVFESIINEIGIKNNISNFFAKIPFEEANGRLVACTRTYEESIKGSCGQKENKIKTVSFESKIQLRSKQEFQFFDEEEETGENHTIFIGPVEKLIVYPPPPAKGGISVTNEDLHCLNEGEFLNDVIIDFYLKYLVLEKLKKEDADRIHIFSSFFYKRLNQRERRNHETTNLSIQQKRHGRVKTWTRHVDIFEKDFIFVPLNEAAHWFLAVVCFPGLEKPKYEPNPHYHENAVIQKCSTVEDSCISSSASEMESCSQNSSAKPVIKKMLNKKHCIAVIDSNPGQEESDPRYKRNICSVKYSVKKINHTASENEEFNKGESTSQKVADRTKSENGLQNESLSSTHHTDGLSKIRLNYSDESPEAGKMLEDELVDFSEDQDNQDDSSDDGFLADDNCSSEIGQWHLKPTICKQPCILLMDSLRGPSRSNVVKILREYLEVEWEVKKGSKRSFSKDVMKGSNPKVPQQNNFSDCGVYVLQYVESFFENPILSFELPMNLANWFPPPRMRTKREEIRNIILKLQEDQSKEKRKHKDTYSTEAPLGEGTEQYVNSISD
Format: functional.

The target in assay [2] is T3, Sentrin-specific protease 8 (Homo sapiens, UniProt Q96LD8).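 Note: luminescence read-out of SENP8 inhibition, dose-response confirmation following an ultra-high-throughput screen.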
T3 sequence (Q96LD8 whole entry): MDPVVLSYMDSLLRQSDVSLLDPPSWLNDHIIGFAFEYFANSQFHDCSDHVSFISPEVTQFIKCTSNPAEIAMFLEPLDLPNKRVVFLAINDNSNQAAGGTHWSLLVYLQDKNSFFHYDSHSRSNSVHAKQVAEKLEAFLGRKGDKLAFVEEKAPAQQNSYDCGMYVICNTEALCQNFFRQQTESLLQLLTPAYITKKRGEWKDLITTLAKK
Format: functional.

For a further assay, the target named is T4, Caspase-3 (Homo sapiens, UniProt P42574).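 Note: Dose-response selectivity test against caspase-3 for candidate inhibitors of sentrin-specific proteases (SENPs).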
T4 sequence (P42574 whole entry): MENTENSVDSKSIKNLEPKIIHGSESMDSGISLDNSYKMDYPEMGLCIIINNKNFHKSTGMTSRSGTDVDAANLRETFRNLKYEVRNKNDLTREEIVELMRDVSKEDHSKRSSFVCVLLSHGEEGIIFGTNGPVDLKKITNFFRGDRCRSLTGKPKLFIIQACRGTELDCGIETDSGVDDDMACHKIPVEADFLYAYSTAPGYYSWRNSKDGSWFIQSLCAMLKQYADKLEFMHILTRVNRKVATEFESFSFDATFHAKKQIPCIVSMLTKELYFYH
The format is functional.

A further assay has as its target Phospholipase A2 (Homo sapiens, UniProt P04054). Format: functional.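 Note: confirmatory dose-response counterscreen on phospholipase A2, testing hits that came from an ultra-high-throughput screen for ATG4B inhibitors.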
In assay [3] the target is T5, Sentrin-specific protease 7 (Homo sapiens, UniProt Q9BQF6).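 Note: Luminescence-based dose-response confirmation of ultra-high-throughput screening hits, measuring inhibition of SENP7.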
T5 sequence (Q9BQF6 whole entry): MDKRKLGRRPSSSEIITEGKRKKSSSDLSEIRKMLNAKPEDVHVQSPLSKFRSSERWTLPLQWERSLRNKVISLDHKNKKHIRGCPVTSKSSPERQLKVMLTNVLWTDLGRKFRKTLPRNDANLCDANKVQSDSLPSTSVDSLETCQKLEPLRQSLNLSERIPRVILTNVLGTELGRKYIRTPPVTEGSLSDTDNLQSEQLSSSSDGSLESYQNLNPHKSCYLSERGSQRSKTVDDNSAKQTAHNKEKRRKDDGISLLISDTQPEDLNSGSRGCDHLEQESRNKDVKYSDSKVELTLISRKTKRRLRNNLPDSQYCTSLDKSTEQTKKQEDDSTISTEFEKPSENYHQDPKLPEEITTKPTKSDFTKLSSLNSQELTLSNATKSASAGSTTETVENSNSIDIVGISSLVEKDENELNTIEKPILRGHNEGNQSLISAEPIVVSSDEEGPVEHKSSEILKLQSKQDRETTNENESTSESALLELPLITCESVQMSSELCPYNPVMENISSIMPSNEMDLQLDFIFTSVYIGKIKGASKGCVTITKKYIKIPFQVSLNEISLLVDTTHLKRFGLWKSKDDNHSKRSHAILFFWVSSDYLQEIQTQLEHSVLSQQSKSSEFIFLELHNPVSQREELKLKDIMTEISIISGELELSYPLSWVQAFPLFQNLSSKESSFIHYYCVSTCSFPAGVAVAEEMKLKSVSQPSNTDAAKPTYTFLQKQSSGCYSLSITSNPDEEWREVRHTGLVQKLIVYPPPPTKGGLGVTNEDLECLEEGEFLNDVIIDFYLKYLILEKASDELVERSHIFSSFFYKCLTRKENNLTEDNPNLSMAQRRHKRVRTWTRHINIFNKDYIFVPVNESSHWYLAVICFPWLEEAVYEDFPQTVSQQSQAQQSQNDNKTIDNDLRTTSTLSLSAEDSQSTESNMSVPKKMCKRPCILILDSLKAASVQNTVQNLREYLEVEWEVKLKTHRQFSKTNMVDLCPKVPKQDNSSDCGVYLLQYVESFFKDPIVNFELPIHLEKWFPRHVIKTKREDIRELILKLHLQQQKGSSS
Format: functional.

Assay [4] has as its target T6, Small ubiquitin-related modifier 1 (Homo sapiens, UniProt P63165). Description: inhibitors of SUMO1 peptide binding, dose response, biochemical, fluorescence polarization, uHTS hits (AID 624382). The following applies: read-out: IC50_Mean. The format is functional. Background: Fluorescence polarisation rises when a labelled molecule tumbles more slowly, as on binding a larger partner.

Assay [5] in a line: HEp-2 cell cytotoxicity, dose response, cytotoxicity control for RSV inhibitor project, HTS (AID 2410). The note with it: human respiratory syncytial virus. Format: functional.
Assay [6] has as its target T6, Small ubiquitin-related modifier 1. The assay is described as follows: inhibitors of SUMO1 partner interactions, dose response, biochemical, FRET (AID 624383). The format is functional. The note with it: read-out: IC50_Mean.
A short description of assay [7]: Counterscreen for inhibitors of Trypanosoma brucei methionyl tRNA synthetase (MetRS): Luminescence-based cell-based high throughput dose response assay to identify compounds that are cytotoxic to Jurkat human T lymphocyte cells. The format is functional. In general terms: A counterscreen serves to expose hits that act by an unwanted route or on another target.
Assay [8] addresses T7, Methionyl-tRNA synthetase, putative (Trypanosoma brucei brucei, UniProt Q38C91).
T7 sequence (Q38C91 whole entry): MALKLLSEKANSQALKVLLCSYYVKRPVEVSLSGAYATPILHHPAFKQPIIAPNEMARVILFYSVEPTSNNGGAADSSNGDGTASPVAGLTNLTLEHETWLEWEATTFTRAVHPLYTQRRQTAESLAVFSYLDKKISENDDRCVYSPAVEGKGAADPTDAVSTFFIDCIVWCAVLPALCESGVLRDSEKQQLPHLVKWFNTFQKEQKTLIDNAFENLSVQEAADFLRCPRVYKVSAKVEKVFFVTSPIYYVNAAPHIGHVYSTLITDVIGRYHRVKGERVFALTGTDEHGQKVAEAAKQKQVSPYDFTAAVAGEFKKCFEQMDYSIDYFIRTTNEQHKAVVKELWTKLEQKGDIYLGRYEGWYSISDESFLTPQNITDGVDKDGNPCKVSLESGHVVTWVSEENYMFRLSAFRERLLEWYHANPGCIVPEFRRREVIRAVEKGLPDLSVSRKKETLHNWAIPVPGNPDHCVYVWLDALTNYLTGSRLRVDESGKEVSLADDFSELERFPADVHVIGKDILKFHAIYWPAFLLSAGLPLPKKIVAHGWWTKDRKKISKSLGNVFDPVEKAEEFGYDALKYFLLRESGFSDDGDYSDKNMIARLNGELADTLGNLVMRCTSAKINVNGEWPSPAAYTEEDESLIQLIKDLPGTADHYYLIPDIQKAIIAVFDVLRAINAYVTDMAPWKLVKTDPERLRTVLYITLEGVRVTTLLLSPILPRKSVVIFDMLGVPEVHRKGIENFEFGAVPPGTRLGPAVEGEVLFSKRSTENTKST
The format is functional, Trypanosoma brucei brucei strain 927/4 GUTat10.1.

Assay [9] deals with T7, Methionyl-tRNA synthetase, putative. The format is functional, Trypanosoma brucei brucei strain 927/4 GUTat10.1. This is another data set of the same source.
In a further assay the test system is P388/ADR. Description: cells. The note with it: Mus musculus. Format: functional.
The test system of the next assay is P388. The assay is described as follows: cells. Format: functional. The note with it: Mus musculus.
In the next assay the test system is SN12K1. Description: cells. The following applies: Homo sapiens. Format: functional.
Assay [10] is described as follows: intracellular Trypanosoma cruzi inhibitors in host cells – cell-based, plate reader, cherry-pick samples, set 3, dose response (AID 651818).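 Note: compounds incubated with infected cells for about four days.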 The format is functional.

Each structure is given as a SMILES string. The source made the active and inactive calls.

T6 sequence (P63165 whole entry): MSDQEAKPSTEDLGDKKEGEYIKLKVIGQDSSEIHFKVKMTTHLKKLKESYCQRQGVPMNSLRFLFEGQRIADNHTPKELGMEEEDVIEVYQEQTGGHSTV
Phospholipase A2, sequence (P04054 whole entry): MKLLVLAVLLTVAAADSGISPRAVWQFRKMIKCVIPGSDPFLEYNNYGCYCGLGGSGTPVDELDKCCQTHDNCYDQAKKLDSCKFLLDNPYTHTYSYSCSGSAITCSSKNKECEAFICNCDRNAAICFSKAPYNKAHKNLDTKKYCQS

Consider `Cc1ccc(-c2nnc(SCc3ccccc3F)o2)cc1`, for which the IC50 is 14.5 µM (active) at Cysteine protease ATG4B; 14.6 µM (active) in assay [1]; 21.4 µM (active) in [2]; 17.7 µM (active) at Caspase-3; 7.21 µM (active) on Phospholipase A2; 5.03 µM (active) in assay [3].

Consider `CCCCCCC(=O)Nc1nc(C)c(-c2csc(Nc3cccc(OC)c3)n2)s1`, for which the values for the IC50 in assay [4] and in assay [6] were > 66.6 µM (inactive) and 12.9 µM (active), respectively. Moreover, the 50% cytotoxic concentration (CC50) in assay [5] was 18.4 µM (active).

On to `Clc1ccc2[nH]c(C3CCN(Cc4nnnn4C4CCCCC4)CC3)nc2c1`, for which the IC50 in assay [7] is 14.5 µM (inactive).

`Clc1ccc2nc(C3CCN(Cc4nnnn4C4CCCCC4)CC3)[nH]c2c1`: the values for the IC50 in assay [8] and in assay [9] were 2.91 µM (active) and 7.33 µM (active), respectively.

As for `COc1ccc(C(=O)Nc2ccc(C(=O)Nc3nccs3)cc2)cc1[N+](=O)[O-]`, the IC50 in assay [4] was > 66.6 µM (inactive); in assay [6] it was 9.87 µM (active).

For `C[C@H](O)[C@@H]1C(=O)N2CCc3c([nH]c4ccccc34)[C@@H]2C[C@@H]1N(C)Cc1ccc(Cl)cc1`, the IC50 in assay [8] is 0.974 µM (active); in [7] it was 57.9 µM (inactive); in [9] it was 1.49 µM (active).

As to `CCN(CC)CCNC(=O)C1COc2ccc(-c3cc(=O)c4ccccc4o3)cc2O1` (stereo unspecified), the values for the GI50 in the assay with P388/ADR, in the assay on P388 and in the assay on SN12K1 were 12.3 µM (inactive), 0.29 µM (active) and 16.8 µM (inactive), respectively.

As for `COc1cc2c(cc1OC)C(Cl)C(c1ccc(Br)cc1)=C2Cl` (stereo unspecified), the GI50 in the assay on P388/ADR was 3.78 µM (inactive); in the assay with P388, 3.94 µM (inactive); in the assay with SN12K1, 15.6 µM (inactive).

`CCOC(=O)/C(O)=C1\C(=O)N(C)C(=O)C1c1cccc(OC)c1` (stereo unspecified): the GI50 in the assay on P388/ADR, in the assay with P388 and in the assay with SN12K1 was > 100 µM (inactive) in each case.

For the compound `O=S(=O)(O)c1cc(/N=[N+](\[O-])c2ccc(/N=N/c3ccccc3)cc2S(=O)(=O)O)ccc1/C=C/c1ccc(/N=[N+](\[O-])c2ccc(/N=N/c3ccccc3)cc2S(=O)(=O)O)cc1S(=O)(=O)O`, the GI50 in the assay with P388 was > 100 µM (inactive); in the assay with SN12K1 it was > 31.6 µM (inactive).

`C[C@H]1CN([C@@H](C)CO)C(=O)c2cccc(NC(=O)c3ccncc3)c2O[C@@H]1CN(C)CC1CCCCC1`: the concentration at half-maximal activity (AC50) in assay [10] is 0.365 µM (active).

Regarding `C[C@H](CO)N1C[C@H](C)[C@@H](CN(C)CC2CC2)Oc2c(NC(=O)Nc3ccc4c(c3)OCO4)cccc2C1=O`, the AC50 in assay [10] is 20 µM (inactive).

With `Cc1ccc(S(=O)(=O)N(C)C[C@H]2Oc3c(NC(=O)c4ccc(-c5nccs5)cc4)cccc3C(=O)N([C@H](C)CO)C[C@@H]2C)cc1`, the concentration at half-maximal activity (AC50) in [10] was 8.72 µM (active).

What is called CC50 is the concentration at which the toxic effect on the cells reaches its halfway point. In general, GI50 refers to the concentration at which growth is held to half of that of the control. The AC50 is the midpoint of the concentration-response curve, whichever way the signal moves.

The values above are taken from ChEMBL document CHEMBL1201862, “PubChem BioAssay data set” (2004).
